Data: patent publication US5910504A, “Hetero-aromatic ring substituted phenyloxazolidinone antimicrobials” (Pharmacia & Upjohn, priority 1997, dated 1999)
In brackets after ≈: the same amount, converted by molar mass. Several values for one entry are separate records, joined by “and”; a condition that tells them apart may be missing. Identical values can stand only once. Like-named read-outs stand apart in the source and are kept apart here.

Columns and labels:
S. pneumoniae, UC 9912 = experiment: In vitro activity: minimum inhibitory concentration (MIC) by agar dilution, S. pneumoniae; format: cell-based; conditions: Streptococcus pneumoniae
Excerpt: (§1) The oxazolidinone antibacterial agents of this invention have useful activity against a variety of organisms. The in vitro activity of compounds of this invention can be assessed by standard testing procedures such as the determination of minimum inhibitory concentration (MIC) by agar dilution as desribed in "Methods for Dilution Antimicrobial Susceptibility Tests for Bacteria That Grow Aerobically" (MFT) published January 1983 by the National Committee for Clinical Laboratory Standards, 771 East Lancaster Avenue, Villanova, Pa. 19084, USA. The activity of selected compounds of this invention against Staphylococcus aureus and Streptococcus pneumoniae are shown in Table 1.

S. aureus, UC 9213 [1] = experiment: In vitro activity: minimum inhibitory concentration (MIC) by agar dilution, S. aureus; format: cell-based; conditions: Staphylococcus aureus
Excerpt: as §1

S. aureus, UC 9213 [2] = experiment: In vivo antimicrobial activity, Murine Assay procedure; parameters: species or system Staphylococcus aureus (infected female mice); conditions: oral or subcutaneous; for ED50: Staphylococcus aureus, UC9213, 144 h
Experimental: Antimicrobial activity was tested in vivo using the Murine Assay procedure. Groups of female mice (six mice of 18-20 grams each) were injected intraperitoneally with bacteria which were thawed just prior to use and suspended in brain heart infusion with 4% brewers yeast UC9213 (Staphylococcus aureus) or brain heart infusion (Streptococcus species). Antibiotic treatment at six dose levels per drug was administered one hour and five hours after infection by either oral intubation or subcutaneous ("subcut.") routes. Survival was observed daily for six days. ED50 values based on mortality ratios were calculated using probit analysis. The subject compounds were compared against a well-known antimicrobial (Vancomycin) as a control.

[3] = UC9912, agar dilution, read-out: Minimum Inhibitory Concentration, S. pneumoniae, UC 9912
[4] = UC9213, agar dilution, read-out: Minimum Inhibitory Concentration, S. aureus, UC 9213
[5] = female mice, i.p. infection, drug 1 h and 5 h after infection, six-day survival, probit, read-out: ED50, S. aureus, UC 9213

CC(=O)NC[C@H]1CN(c2ccc(-n3cnnc3)c(F)c2)C(=O)O1 [Example 11, (S)-N-[[3-[3-Fluoro-4-(4H-1,2,4-triazol-4-yl)phenyl]-2-oxo-5-oxazolidinyl]methyl]acetamide]
MIC (S. pneumoniae, UC 9912; [3]): 1 µg/mL (≈ 3.13 µM)
MIC (S. aureus, UC 9213 [1]; [4]): > 16 µg/mL

CSc1nncn1-c1ccc(N2C[C@H](CNC(C)=O)OC2=O)cc1F [Example 10, (S)-N-[[3-[3-Fluoro-4-(3-methylthio-4H-1,2,4-triazol-4-yl)phenyl]-2-oxo-5-oxazolidinyl]methyl]acetamide]
MIC (S. pneumoniae, UC 9912; [3]): 1 µg/mL (≈ 2.74 µM)
MIC (S. aureus, UC 9213 [1]; [4]): 8 µg/mL (≈ 21.9 µM)

CC(=O)NC[C@H]1CN(c2ccc(-n3cncn3)c(F)c2)C(=O)O1 [Example 4, (S)-N-[[3-[3-Fluoro-4-(1H-1,2,4-triazol-1-yl)phenyl]-2-oxo-5-oxazolidinyl]methyl]acetamide]
MIC (S. pneumoniae, UC 9912; [3]): 1 µg/mL (≈ 3.13 µM)
ED50 (S. aureus, UC 9213 [2]; [5]): 5.7 mg/kg
MIC (S. aureus, UC 9213 [1]; [4]): 4 µg/mL (≈ 12.5 µM)

CC(=O)NC[C@H]1CN(c2ccc(-n3ccc(CO)c3)c(F)c2)C(=O)O1 [Example 13, (S)-N-[[3-[3-Fluoro-4-(3-hydroxymethyl-1H-pyrrol-1-yl)phenyl]-2-oxo-5-oxazolidinyl]methyl]acetamide]
MIC (S. pneumoniae, UC 9912; [3]): 0.25 µg/mL (≈ 0.72 µM)
MIC (S. aureus, UC 9213 [1]; [4]): 1 µg/mL (≈ 2.88 µM)

CC(=O)NC[C@H]1CN(c2ccc(-n3ccc(CCCO)c3)c(F)c2)C(=O)O1 [Example 25, (S)-N-[[3-[3-Fluoro-4-[3-(3-hydroxypropyl)-1H-pyrrol-1-yl]phenyl]-2-oxo-5-oxazolidinyl]methyl]acetamide]
MIC (S. pneumoniae, UC 9912; [3]): 0.5 µg/mL (≈ 1.33 µM)
MIC (S. aureus, UC 9213 [1]; [4]): 4 µg/mL (≈ 10.7 µM)

CC(=O)NC[C@H]1CN(c2ccc(-n3ccc(C=NO)c3)c(F)c2)C(=O)O1 [Example 16, (S)-N-[[3-[3-Fluoro-4-(3-(hydroxyiminomethyl)-1H-pyrrol-1-yl)phenyl]-2-oxo-5-oxazolidinyl]methyl]acetamide]
MIC (S. pneumoniae, UC 9912; [3]): < 0.25 µg/mL
ED50 (S. aureus, UC 9213 [2]; [5]): 5.5 mg/kg
MIC (S. aureus, UC 9213 [1]; [4]): 1 µg/mL (≈ 2.78 µM)

CC(=O)NC[C@H]1CN(c2ccc(-n3cc(C(C)O)nn3)c(F)c2)C(=O)O1 (stereo partly drawn) [Example 18, (S)-N-[[3-[3-Fluoro-4-(4-(1-hydroxyethyl)-1H-1,2,3-triazol-1-yl)phenyl]-2-oxo-5-oxazolidinyl]methyl]acetamide]
MIC (S. pneumoniae, UC 9912; [3]): 0.5 µg/mL (≈ 1.38 µM)
MIC (S. aureus, UC 9213 [1]; [4]): 4 µg/mL (≈ 11 µM)

CC(=O)NC[C@H]1CN(c2ccc(-n3ccnn3)c(F)c2)C(=O)O1 [Example 6, (S)-N-[[3-[3-Fluoro-4-(1H-1,2,3-triazol-1-yl)phenyl]-2-oxo-5-oxazolidinyl]methyl]acetamide]
MIC (S. pneumoniae, UC 9912; [3]): < 0.5 µg/mL
ED50 (S. aureus, UC 9213 [2]; [5]): 4.7 mg/kg
MIC (S. aureus, UC 9213 [1]; [4]): 1 µg/mL (≈ 3.13 µM)

COC(=O)c1cn(-c2ccc(N3C[C@H](CNC(C)=O)OC3=O)cc2F)nn1 [Example 20, (S)-N-[[3-[3-Fluoro-4-(4-carbomethoxy-1H-1,2,3-triazol-1-yl)phenyl]-2-oxo-5-oxazolidinyl]methyl]acetamide]
MIC (S. pneumoniae, UC 9912; [3]): 1 µg/mL (≈ 2.65 µM)
MIC (S. aureus, UC 9213 [1]; [4]): 4 µg/mL (≈ 10.6 µM)

CC(=O)NC[C@H]1CN(c2ccc(-n3ccc(C=O)c3)c(F)c2)C(=O)O1 [Example 12, (S)-N-[[3-[3-Fluoro-4-(1H-pyrrol-1-yl-3-carboxaldehyde)phenyl]-2-oxo-5-oxazolidinyl]methyl]acetamide]
MIC (S. pneumoniae, UC 9912; [3]): < 0.06 µg/mL
MIC (S. aureus, UC 9213 [1]; [4]): 0.25 µg/mL (≈ 0.724 µM)

CC(=O)NC[C@H]1CN(c2ccc(-n3cc(C=O)nn3)c(F)c2)C(=O)O1 [Example 21, (S)-N-[[3-[3-Fluoro-4-(1H-1,2,3-triazol-1-yl-4-carboxaldehyde)phenyl]-2-oxo-5-oxazolidinyl]methyl]acetamide]
MIC (S. pneumoniae, UC 9912; [3]): 0.25 µg/mL (≈ 0.72 µM)
MIC (S. aureus, UC 9213 [1]; [4]): 0.5 µg/mL (≈ 1.44 µM)

CC(=O)NC[C@H]1CN(c2ccc(-n3cccc3)c(F)c2)C(=O)O1 [Example 1, (S)-N-[[3-[3-Fluro-4-(1H-pyrrol-1-yl)phenyl]-2-oxo-5-oxazolidinyl]methyl]acetamide]
MIC (S. pneumoniae, UC 9912; [3]): < 0.5 µg/mL
MIC (S. aureus, UC 9213 [1]; [4]): < 0.5 µg/mL

CC(=O)NC[C@H]1CN(c2ccc(-n3cccn3)c(F)c2)C(=O)O1 [Example 2, (S)-N-[[3-[3-Fluoro-4-(1H-pyrazol-1-yl)phenyl]-2-oxo-5-oxazolidinyl]methyl]acetamide]
MIC (S. pneumoniae, UC 9912; [3]): 1 µg/mL (≈ 3.14 µM)
MIC (S. aureus, UC 9213 [1]; [4]): 2 µg/mL (≈ 6.28 µM)

CC(=O)NC[C@H]1CN(c2ccc(-n3ccnc3)c(F)c2)C(=O)O1 [Example 3, (S)-N-[[3-[3-Fluoro-4-(1H-imidazol-1-yl)phenyl]-2-oxo-5-oxazolidinyl]methyl]acetamide]
MIC (S. pneumoniae, UC 9912; [3]): < 0.5 µg/mL
ED50 (S. aureus, UC 9213 [2]; [5]): 9.5 mg/kg
MIC (S. aureus, UC 9213 [1]; [4]): 2 µg/mL (≈ 6.28 µM)

CC(=O)NC[C@H]1CN(c2ccc(-n3cc(CO)cn3)c(F)c2)C(=O)O1 [Example 22, (S)-N-[[3-[3-Fluoro-4-(4-hydroxymethyl-1H-pyrazol-1-yl)phenyl]-2-oxo-5-oxazolidinyl]methyl]acetamide]
MIC (S. pneumoniae, UC 9912; [3]): 0.5 µg/mL (≈ 1.44 µM)
MIC (S. aureus, UC 9213 [1]; [4]): 8 µg/mL (≈ 23 µM)

CC(=O)NC[C@H]1CN(c2ccc(-n3ccc4ccccc43)c(F)c2)C(=O)O1 [Example 5, (S)-N-[[3-[3-Fluoro-4-(1H-indol-1-yl)phenyl]-2-oxo-5-oxazolidinyl]methyl]acetamide]
MIC (S. pneumoniae, UC 9912; [3]): 1 µg/mL (≈ 2.72 µM)
MIC (S. aureus, UC 9213 [1]; [4]): 4 µg/mL (≈ 10.9 µM)

CCOC(=O)CCc1ccn(-c2ccc(N3C[C@H](CNC(C)=O)OC3=O)cc2F)c1 [Example 24, (S)-N-[[3-[3-Fluoro-4-[3-(2-carboethoxyethyl)-1H-pyrrol-1-yl]phenyl]-2-oxo-5-oxazolidinyl]methyl]acetamide]
MIC (S. pneumoniae, UC 9912; [3]): 0.5 µg/mL (≈ 1.2 µM)
MIC (S. aureus, UC 9213 [1]; [4]): 4 µg/mL (≈ 9.58 µM)

CCOC(=O)C=Cc1ccn(-c2ccc(N3C[C@H](CNC(C)=O)OC3=O)cc2F)c1 [Example 23, (S)-N-[[3-[3-Fluoro-4-[3-(2-carboethoxyvinyl)-1H-pyrrol-1-yl]phenyl]-2-oxo-5-oxazolidinyl]methyl]acetamide]
MIC (S. pneumoniae, UC 9912; [3]): 0.5 µg/mL (≈ 1.2 µM)
MIC (S. aureus, UC 9213 [1]; [4]): 4 µg/mL (≈ 9.63 µM)

CC(=O)NC[C@H]1CN(c2ccc(-n3nccn3)c(F)c2)C(=O)O1 [Example 8, (S)-N-[[3-[3-Fluoro-4-(2H-1,2,3-triazol-2-yl)phenyl]-2-oxo-5-oxazolidinyl]methyl]acetamide]
MIC (S. pneumoniae, UC 9912; [3]): 1 µg/mL (≈ 3.13 µM)
MIC (S. aureus, UC 9213 [1]; [4]): 4 µg/mL (≈ 12.5 µM)

CN[C@H](CC(C)C)C(=O)N[C@H]1C(=O)N[C@@H](CC(N)=O)C(=O)N[C@H]2C(=O)N[C@H]3C(=O)N[C@H](C(=O)N[C@H](C(=O)O)c4cc(O)cc(O)c4-c4cc3ccc4O)[C@H](O)c3ccc(c(Cl)c3)Oc3cc2cc(c3O[C@@H]2O[C@H](CO)[C@@H](O)[C@H](O)[C@H]2O[C@H]2C[C@](C)(N)[C@H](O)[C@H](C)O2)Oc2ccc(cc2Cl)[C@H]1O [Vancomycin, reference compound]
MIC (S. pneumoniae, UC 9912; UC9912, read-out: Minimum Inhibitory Concentration, S. pneumoniae, UC 9912): 0.5 µg/mL (≈ 0.345 µM)
ED50 (S. aureus, UC 9213 [2]; read-out: Control, ED50, control drug run alongside each test compound, S. aureus UC 9213, female mice): 2.2 mg/kg
Control, ED50 (S. aureus, UC 9213 [2]; control drug run alongside each test compound, S. aureus UC 9213, female mice, 8640 min): 2.4 mg/kg and 2.0 mg/kg and 1.2 mg/kg
MIC (S. aureus, UC 9213 [1]; UC9213, read-out: Minimum Inhibitory Concentration, S. aureus, UC 9213): 1 µg/mL (≈ 0.69 µM)

COC(=O)c1ccn(-c2ccc(N3C[C@H](CNC(C)=O)OC3=O)cc2F)c1 [Example 14, (S)-N-[[3-[3-Fluoro-4-(3-carbomethoxy-1H-pyrrol-1-yl)phenyl]-2-oxo-5-oxazolidinyl]methyl]acetamide]
MIC (S. pneumoniae, UC 9912; [3]): 0.25 µg/mL (≈ 0.666 µM)
MIC (S. aureus, UC 9213 [1]; [4]): 2 µg/mL (≈ 5.33 µM)

O=C(NC[C@H]1CN(c2ccc(-n3ccnn3)c(F)c2)C(=O)O1)C(Cl)Cl [Example 7, (S)-N-[[3-[3-Fluoro-4-(1H-1,2,3-triazol-1-yl)phenyl]-2-oxo-5-oxazolidinyl]methyl]-2,2-dichloroacetamide]
MIC (S. pneumoniae, UC 9912; [3]): < 0.5 µg/mL
ED50 (S. aureus, UC 9213 [2]; [5]): 11.9 mg/kg
MIC (S. aureus, UC 9213 [1]; [4]): 1 µg/mL (≈ 2.58 µM)

CC(=O)NC[C@H]1CN(c2ccc(-n3ccc(CCCNS(C)(=O)=O)c3)c(F)c2)C(=O)O1 [Example 26, (S)-N-[[3-[3-Fluoro-4-[3-(3-methanesulfonylaminopropyl)-1H-pyrrol-1-yl]phenyl]-2-oxo-5-oxazolidinyl]methyl]acetamide]
MIC (S. pneumoniae, UC 9912; [3]): 0.5 µg/mL (≈ 1.1 µM)
MIC (S. aureus, UC 9213 [1]; [4]): 8 µg/mL (≈ 17.7 µM)

CC(=O)NC[C@H]1CN(c2ccc(-n3cc(C(C)=O)nn3)c(F)c2)C(=O)O1 [Example 17, (S)-N-[[3-[3-Fluoro-4-(4-acetyl-1H-1,2,3-triazol-1-yl)phenyl]-2-oxo-5-oxazolidinyl]methyl]acetamide]
MIC (S. pneumoniae, UC 9912; [3]): 0.5 µg/mL (≈ 1.38 µM)
MIC (S. aureus, UC 9213 [1]; [4]): 1 µg/mL (≈ 2.77 µM)

CC(=O)NC[C@H]1CN(c2ccc(-n3cnnc3S)c(F)c2)C(=O)O1 [Example 9, (S)-N-[[3-[3-Fluoro-4-(3-mercapto-4H-1,2,4-triazol-4-yl)phenyl]-2-oxo-5-oxazolidinyl]methyl]acetamide]
MIC (S. pneumoniae, UC 9912; [3]): 8 µg/mL (≈ 22.8 µM)
MIC (S. aureus, UC 9213 [1]; [4]): > 32 µg/mL

CC(=O)NC[C@H]1CN(c2ccc(-n3cc(C(C)=NO)nn3)c(F)c2)C(=O)O1 [Example 19]
MIC (S. pneumoniae, UC 9912; [3]): 0.5 µg/mL (≈ 1.33 µM)
MIC (S. aureus, UC 9213 [1]; [4]): 4 µg/mL (≈ 10.6 µM)
